Results published in patent US20240166612A1, “ARYLTHIOETHER ACETAMIDE AND RELATED COMPOUNDS AND THEIR USE IN TREATING MEDICAL CONDITIONS” (X-Biotix Therapeutics, Inc., priority 2021, published 2024).
In brackets after ≈: the same amount, converted by molar mass.

Assays:
[1] = target: T1, recombinant LpxA enzyme (P. aeruginosa) (Pseudomonas aeruginosa, UniProt Q9X6P4); assay: LpxA in vitro substrate acylation assay with RapidFire MS analysis (P. aeruginosa); type: biochemical; conditions: P. aeruginosa enzyme 0.5 nM, PaACP-C10, 30 min
T1 sequence (Q9X6P4 1-258): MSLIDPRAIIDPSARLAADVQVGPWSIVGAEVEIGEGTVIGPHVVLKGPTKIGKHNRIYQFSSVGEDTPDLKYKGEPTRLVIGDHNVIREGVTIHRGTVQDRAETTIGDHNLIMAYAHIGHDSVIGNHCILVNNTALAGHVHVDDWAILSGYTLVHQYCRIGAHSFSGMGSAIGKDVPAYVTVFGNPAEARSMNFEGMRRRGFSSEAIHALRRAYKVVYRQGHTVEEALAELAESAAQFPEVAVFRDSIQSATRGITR
Method: Exemplary compounds from the above Examples were tested for ability to inhibit LpxA activity using an in vitro substrate acylation assay with RapidFire™ MS analysis. Assay procedures and results are described below.
Reactions were carried out in a final volume of 30 μL with 25 mM HEPES (pH 7.3), 150 mM NaCl, 2 mM DTT, 0.01% BSA, 5 μM UDP-GlcNac, recombinant LpxA enzyme (0.5 nM P. aeruginosa or 1.0 nM E. coli, both produced at Evotec), 0.5 μM acyl-transfer reagent (decanoyl P. aeruginosa acyl-carrier protein [PaACP-C10] or myristoyl E. coli acyl-carrier protein [EcACP-C1-4], both produced at Evotec), and 1% DMSO containing test compound. After 30 min incubation at room temperature, reactions were stopped by addition of 30 μL of 10% TCA in water.
Samples were centrifuged (4350 rpm, 4° C., 5 min), and then subjected to RapidFire™ MS analysis on an Agilent RapidFire 300 coupled to an Agilent 6460 triple-quadrupole mass spectrometer. Analytes were retained on a C4 (type A) cartridge using the following solvents and flow rates: • Pump 1—H2O with 5 mM NH4OAc at 2.0 mL/min, • Pump 2—MeOH/H2O (90/10) at 1.5 mL/min, • Pump 3—MeOH/H2O (90/10) at 0.5 mL/min, and • Pump 4—ACN (organic)/H2O (aqueous). Substrate and product of the reaction were detected in negative mode ESI-MS/MS by MRM (multiple reaction monitoring) of transitions 606.0/385.0 (UDP-GlcNAc substrate) and 776.2/385.0 (UDP-3-O—(R-3-hydroxydecanoyl)-GlcNAc product, for P. aeruginosa LpxA assay) or 832.2/385.0 (UDP-3-O—(R-3-hydroxymyristoyl)-GlcNAc product, for E. coli LpxA assay).
For IC50 determinations, peak areas of the substrate and product were compared to compute the proportion of product formed by the LpxA enzyme at each compound concentration.

[2] = system: Wild-type P. aeruginosa PAO1; assay: Broth microdilution MIC, wild-type P. aeruginosa PAO1; type: cell-based; conditions: Pseudomonas aeruginosa; wild-type P. aeruginosa PAO1, 37° C., 18 h; read-out: PAO1 WT MIC
Method: (§1) Exemplary compounds from the above Examples were tested to determine their minimum inhibitory concentration (MIC) for exemplary strains of Escherichia and Pseudomonas bacteria using broth microdilution methods. Assay procedures and results are described below.
(§2) Broth microdilution assays were conducted according to Clinical and Laboratory Standards Institute guidelines (CLSI, M07-A^11: Clinical and Laboratory Standards Institute. Methods for Dilution Antimicrobial Susceptibility Tests for Bacteria that Grow Aerobically; Approved Standard-11th Edition. Wayne, PA: CLSI, 2018). Briefly, bacterial suspensions were adjusted to a density equivalent to a 0.5 McFarland standard and diluted in sterile, cation-adjusted Mueller-Hinton broth (Beckton Dickinson) to yield a final inoculum between 2×10^5 and 8×10^5 colony-forming units (CFU)/mL. An inoculum volume of 98 μL was added to wells containing 2 μL of 2-fold serial dilutions of drug (prepared in DMSO). All inoculated microdilution trays were incubated in ambient air at 37° C. for 18 h. […] Performance of the assay was monitored by the use of laboratory quality-control strains (S. aureus ATCC 29213 and P. aeruginosa ATCC 27853) and levofloxacin, a compound with a defined MIC spectrum, in accordance with CLSI guidelines (CLSI, M100Ed29: Clinical and Laboratory Standards Institute. Performance Standards for Antimicrobial Susceptibility Testing, 29th Edition. Wayne, PA: CLSI, 2018).
(§3) Multiple enterobacteriaceae strains were tested, including both wild-type strains and multi-drug resistance pump deficient mutants. Specific strains tested included the following: • Wild-type P. aeruginosa PAO1, • P. aeruginosa PAO1 ΔmexABoprM—Disabled multi-drug efflux system Δ(MexAB-OprM), • P. aeruginosa PAO397—PAO1Δ(mexAB-oprM) Δ(mexCD-oprJ) Δ(mexEF-oprN) Δ(mexJK) Δ(mexXY) ΔopmH, • P. aeruginosa LESB58—Clinical isolate; colistin-resistant, isolated in the United Kingdom in 1988 from a patient with cystic fibrosis • E. coli JW0452-3 (BW25113 JacrA::kan)—Disabled multi-drug efflux system (AcrAB-TolC).
(§4) Experimental results are provided in Table 11, which provides MIC values for wild-type P. aeruginosa PAO1 (“PAO1 WT MIC”), P. aeruginosa PAO ΔmexABoprM (“PAO1 KO MIC”), P. aeruginosa PAO397 (“PAO397 KO MIC”), P. aeruginosa LESB58 (“LESB58”), and E. coli JW0452-3 (BW25113 JacrA::kan) (“E. coli KO MIC”).

P. aeruginosa LESB58 = assay: Broth microdilution MIC, P. aeruginosa LESB58; type: cell-based; conditions: Pseudomonas aeruginosa; P. aeruginosa LESB58 clinical isolate, colistin-resistant, 37° C., 18 h
Method: as §1, §2, §3, §4

[3] = system: P. aeruginosa PAO1 ΔmexABoprM; assay: Broth microdilution MIC, P. aeruginosa PAO1 ΔmexABoprM; type: cell-based; conditions: Pseudomonas aeruginosa, PAO1, 18 h, read-out: PAO1 KO MIC
Method: as §1, §2, §3, §4

P. aeruginosa PAO397 = assay: Broth microdilution MIC, P. aeruginosa PAO397; type: cell-based; conditions: Pseudomonas aeruginosa, PAO397, 18 h, read-out: PAO397 KO MIC
Method: as §1, §2, §3, §4

Nc1nnc(CN(Cc2ccc([N+](=O)[O-])nc2)C(=O)COc2cc(F)cc(F)c2C2CC2)o1 [compound 87]
IC50 [1]: 0.02 to 0.1 µM | MIC [2]: > 64 µg/mL | MIC (P. aeruginosa LESB58): > 64 µg/mL

Nc1nnc(CN(Cc2ccc([N+](=O)[O-])cc2F)C(=O)COc2cc(F)cc(F)c2C2CC2)o1 [compound 86]
IC50 [1]: < 0.02 µM | MIC [2]: 16 to 64 µg/mL (≈ 33.5 to 134 µM) | MIC (P. aeruginosa LESB58): 1 to 16 µg/mL (≈ 2.09 to 33.5 µM)

[2H]C([2H])(Oc1ccccc1C([2H])([2H])C([2H])([2H])[2H])C(=O)N(Cc1ccc(C#N)nc1)Cc1nnc(N)o1 [compound 88]
IC50 [1]: 0.02 to 0.1 µM | MIC [2]: > 64 µg/mL | MIC (P. aeruginosa LESB58): > 64 µg/mL

N#Cc1ccc(CN(Cc2nnc(N)o2)C(=O)COc2cc(F)cc(F)c2Br)c(F)c1 [compound 96]
IC50 [1]: < 0.02 µM | MIC [2]: 16 to 64 µg/mL (≈ 32.2 to 129 µM) | MIC (P. aeruginosa LESB58): 1 to 16 µg/mL (≈ 2.02 to 32.2 µM)

[2H]C([2H])(Oc1ccccc1C([2H])([2H])C([2H])([2H])[2H])C(=O)N(Cc1nnc(N)o1)Cc1ccc([N+](=O)[O-])cc1F [compound 92]
IC50 [1]: 0.02 to 0.1 µM | MIC [2]: > 64 µg/mL | MIC (P. aeruginosa LESB58): 16 to 64 µg/mL (≈ 36.7 to 147 µM)

N#Cc1ccc(CN(Cc2nnc(N)o2)C(=O)COc2cccc(Cl)c2Cl)c(F)c1 [compound 34]
MIC [2]: > 64 µg/mL | MIC [3]: 16 to 64 µg/mL (≈ 35.5 to 142 µM) | MIC (P. aeruginosa PAO397): < 1 µg/mL

CCc1cccc(OCC(=O)N(Cc2nnc(N)o2)Cc2ccc(C#N)cc2F)c1 [compound 110]
IC50 [1]: 0.1 to 1 µM | MIC [2]: > 64 µg/mL | MIC (P. aeruginosa LESB58): > 64 µg/mL

CCc1c(F)cc(F)cc1OCC(=O)N(Cc1ccc2c(c1)CC(=O)N2)Cc1nnc(N)o1 [compound 83]
IC50 [1]: < 0.02 µM | MIC [2]: > 64 µg/mL | MIC (P. aeruginosa LESB58): 16 to 64 µg/mL (≈ 35 to 140 µM)

N#Cc1ccc(CN(Cc2nnc(O)o2)C(=O)CSc2cc(OCCN)ccc2Cl)c(F)c1 [compound 116]
IC50 [1]: > 1 µM | MIC [2]: > 64 µg/mL | MIC (P. aeruginosa LESB58): > 64 µg/mL

N#Cc1ccc(CN(Cc2cn[nH]c2)C(=O)CSc2ccccc2Cl)cc1 [compound 50]
IC50 [1]: 0.1 to 1 µM | MIC [2]: > 64 µg/mL | MIC (P. aeruginosa PAO397): 1 to 16 µg/mL (≈ 2.52 to 40.3 µM)

[2H]C([2H])(Oc1ccccc1C([2H])([2H])C([2H])([2H])[2H])C(=O)N(Cc1ccc([N+](=O)[O-])cc1)Cc1nnc(N)o1 [compound 93]
IC50 [1]: 0.02 to 0.1 µM | MIC [2]: > 64 µg/mL | MIC (P. aeruginosa LESB58): > 64 µg/mL

Nc1nnc(CN(Cc2ccc(S(N)(=O)=O)cc2)C(=O)CSc2ccccc2Cl)o1 [compound 47]
MIC [2]: > 64 µg/mL | MIC [3]: 16 to 64 µg/mL (≈ 34.2 to 137 µM) | MIC (P. aeruginosa PAO397): < 1 µg/mL

CCc1c(F)cc(F)cc1OCC(=O)N(Cc1ccc([N+](=O)[O-])cc1)Cc1nnc(N)o1 [compound 95]
IC50 [1]: < 0.02 µM | MIC [2]: 16 to 64 µg/mL (≈ 35.8 to 143 µM) | MIC (P. aeruginosa LESB58): 1 to 16 µg/mL (≈ 2.24 to 35.8 µM)

C[C@H](Oc1ccccc1Cl)C(=O)N(Cc1ccc(C#N)cc1)Cc1nnc(N)o1 [compound 117]
IC50 [1]: > 1 µM

Cc1cnc(CN(Cc2ccc(C#N)cc2)C(=O)CSc2ccccc2Cl)o1 [compound 72]
IC50 [1]: 0.1 to 1 µM | MIC [2]: > 64 µg/mL | MIC (P. aeruginosa PAO397): 1 to 16 µg/mL (≈ 2.43 to 38.8 µM)

NCc1ccc(CN(Cc2nnc(N)o2)C(=O)CSc2ccccc2Cl)cc1 [Compound No. 61, N-[[4-(Aminomethyl)phenyl]methyl]-N-[(5-amino-1,3,4-oxadiazol-2-yl)methyl]-2-(2-chlorophenyl)sulfanyl-acetamide]
IC50 [1]: > 1 µM | MIC [2]: > 64 µg/mL | MIC (P. aeruginosa PAO397): 16 to 64 µg/mL (≈ 38.3 to 153 µM)

CCc1ccccc1SCC(=O)N(CC(=O)NC)Cc1ccc(-n2cncn2)cc1 [compound 90]
IC50 [1]: 0.1 to 1 µM | MIC [2]: > 64 µg/mL

NCCOc1ccc(Cl)c(SCC(=O)N(Cc2ccc(C(N)=O)c(C(=O)O)c2)Cc2nnc(N)o2)c1 [compound 119]
IC50 [1]: > 1 µM

N#Cc1ccc(CN(C(=O)CSc2ccccc2Cl)C2(c3nnc(N)o3)CC2)c(F)c1 [compound 23]
IC50 [1]: 0.02 to 0.1 µM | MIC [2]: > 64 µg/mL | MIC (P. aeruginosa PAO397): 1 to 16 µg/mL (≈ 2.18 to 34.9 µM)

Nc1nnc(CN(Cc2ccc([N+](=O)[O-])cc2)C(=O)COc2cc(F)cc(F)c2C2CC2)o1 [compound 84]
IC50 [1]: < 0.02 µM | MIC [2]: 16 to 64 µg/mL (≈ 34.8 to 139 µM) | MIC (P. aeruginosa LESB58): 1 to 16 µg/mL (≈ 2.18 to 34.8 µM)

N#Cc1ccc(CN(Cc2nnc(N)o2)C(=O)c2cc3cccc(Cl)c3s2)c(F)c1 [compound 97]
IC50 [1]: > 1 µM | MIC [2]: > 64 µg/mL | MIC (P. aeruginosa LESB58): > 64 µg/mL

N#Cc1ccc(CN(CC(=O)N[C@@H](CN)C(=O)O)C(=O)CSc2cc(F)cc(F)c2Cl)c(F)c1 [compound 107]
IC50 [1]: 0.1 to 1 µM | MIC [2]: > 64 µg/mL | MIC (P. aeruginosa LESB58): > 64 µg/mL

Nc1nnc(CN(Cc2csc([N+](=O)[O-])c2)C(=O)COc2cc(F)cc(F)c2C2CC2)o1 [compound 89]
IC50 [1]: 0.02 to 0.1 µM | MIC [2]: > 64 µg/mL | MIC (P. aeruginosa LESB58): > 64 µg/mL

N#Cc1ccc(CN(Cc2ccc3cn[nH]c3c2)C(=O)CSc2ccccc2Cl)cc1 [compound 71]
IC50 [1]: > 1 µM | MIC [2]: > 64 µg/mL

N#Cc1ccc(CN(Cc2cc[nH]n2)C(=O)CSc2ccccc2Cl)cc1 [compound 49]
IC50 [1]: 0.1 to 1 µM | MIC [2]: > 64 µg/mL | MIC (P. aeruginosa PAO397): 1 to 16 µg/mL (≈ 2.52 to 40.3 µM)

[2H]C([2H])(Oc1cc(F)cc(F)c1C([2H])([2H])C([2H])([2H])[2H])C(=O)N(Cc1nnc(N)o1)Cc1ccc([N+](=O)[O-])cc1F [compound 78]
IC50 [1]: < 0.02 µM | MIC [2]: 1 to 16 µg/mL (≈ 2.12 to 33.9 µM) | MIC (P. aeruginosa LESB58): 1 to 16 µg/mL (≈ 2.12 to 33.9 µM)

N#Cc1ccc(CN(CC(=O)N2CCOC[C@@H]2CN)C(=O)CSc2cc(F)cc(F)c2Cl)c(F)c1 [compound 106]
IC50 [1]: > 1 µM | MIC [2]: > 64 µg/mL | MIC (P. aeruginosa LESB58): > 64 µg/mL
